Results reported in patent US5543422A, “Heterocyclic amines” (British Technology Group Limited, priority 1992, dated 1996).
Counter-ions that a name gives are not always drawn. Like-named read-outs stand apart in the source and are kept apart here.

Columns and labels:
[1] = target: T1, calmodulin (Bos taurus, UniProt P62157); assay: inhibition of calmodulin activation of cyclic nucleotide phosphodiesterase (PDE), hydrolysis of [3H] cAMP; format: biochemical, bovine
T1 construct: a sufficient amount of bovine brain calmodulin; from tissue; host or cells: bovine brain (calmodulin); bovine heart (PDE)

[2] = base strength (pka) of the terminal amine; format: physicochemical; conditions: Table 5, terminal amine
[3] = test system: calmodulin-independent PDE; assay: inhibition of calmodulin-independent activity of PDE; format: biochemical, bovine; conditions: various concentrations
Experimental: The assay was based on the incubation of calmodulin-deficient bovine heart PDE with [^3 H] cyclic adenosine monophosphate (cAMP), and a sufficient amount of bovine brain calmodulin (12.5 ng/100 μl) to give 70-80% activation of the enzyme. The resultant [^3 H] 5'-AMP formed was hydrolysed to [3H] adenosine upon incubation with the 5'-nucleotidase of the Western Diamondback Rattlesnake (Crotalus atrox). The nucleoside was then separated from the unreacted substrate using anion exchange resin. […] The degree of inhibition of calmodulin-activation of PDE in the presence of a range of drugs was expressed as a percentage of the activity of calmodulin-activated PDE in the absence of any drug. […] To give an indication of any inhibition of PDE by compounds, the activity of PDE in the presence of two concentrations of compound (approximately ten fold difference) were included in the assay. As there was no significant difference in the activity of PDE with or without the drug it was concluded that there was no inhibition of calmodulin-independent PDE by the drugs at the concentrations used. The percentage inhibition recorded for calmodulin-activated PDE was therefore due solely to the action of the drugs on the activity of calmodulin.

[4] = Table 2, mean ± S.E. of three assays, * (α 3 CH2, β 2 CH2, β 3 CH2, α 3 0, β 2 0) mean of two, read-out: IC50 in μM (x ± SE)
[5] = Table 1, mean ± S.E. of three assays, * (β CHCH 4 6) mean of two, read-out: IC50 in μM (x ± SE)
[6] = Table 7, effect of the aryl moiety, mean ± S.E. of three assays, * (drawing 9 6 pyrrolidine) mean of two, read-out: IC50 in μM (x ± SE)
[7] = Table 3, mean ± S.E. of three assays, * (β 6 piperdine) mean of two, read-out: IC50 in μM (x ± SE)
[8] = Table 5, effect of base strength of the terminal amine, mean ± S.E., read-out: IC50 in μM (x ± S.E.)
[9] = Table 4, heteroatoms in the side chain, mean ± S.E., read-out: IC50 in μM (x ± SE)

Compound `c1ccc2c(OCCCN3CCOCC3)cccc2c1` [α 3 0] has an IC50 [1, 4] of 217 ± 24.7 µM.
Work on `c1ccc2c(OCCCCCN3CCCCC3)cccc2c1` [α 5 CH2] yielded an IC50 [1, 5] of 39.1 ± 8.9 µM.
For `c1ccc2c(OCCCCCN3CCOCC3)cccc2c1` [α 5 0], the IC50 [1, 4] was 42.3 ± 9.1 µM.
`c1ccc2c(OCCCCCCN3CCCCC3)cccc2c1` [α 6 CH2] showed an IC50 [1, 4] of 28.5 ± 2 µM.
In the case of `c1ccc2cc(OCCCCN3CCCCC3)ccc2c1` [β 4 CH2], the IC50 [1, 4] is reported as 55.8 ± 6 µM.
`c1cc(OCCCCN2CCCC2)c2ccsc2c1` [drawing 8 4 pyrrolidine, N-4-(benzo[b]thien-4-yloxy)butylpyrrolidine] gave an IC50 [1, 6] of 0.88 ± 0.14 µM.
In the case of `c1ccc2cc(SCCCN3CCCCC3)ccc2c1` [β 3 piperdine], the IC50 [1, 7] is reported as 77.7 ± 4.1 µM.
With `c1ccc2cc(SCCCCCN3CCCCC3)ccc2c1` [β 5 piperdine] the IC50 [1, 5] was 22.1 ± 3 µM.
Work on `c1ccc2cc(OCCCCCN3CCCCC3)ccc2c1` [β 5 CH2] yielded an IC50 [1, 4] of 53.9 ± 1.6 µM.
With `c1ccc2cc(SCCCCCN3CCOCC3)ccc2c1` [β 5 morpholine] the IC50 [1, 7] was 20.1 ± 2.25 µM.
In the case of `c1ccc2c(OCCCCCCCCN3CCCCC3)cccc2c1` [α 8 CH2], the IC50 [1, 4] is reported as 5.3 ± 0.3 µM.
`c1ccc2c(OCCCCCCCN3CCCCC3)cccc2c1` [α 7 CH2, N-7-(naphth-1-yloxy)heptylpiperidine hydrochloride] showed an IC50 [1, 4] of 4.7 ± 0.3 µM.
In the case of `c1ccc2cc(OCCN3CCOCC3)ccc2c1` [β 2 0], the IC50 [1, 4] is reported as > 250 µM.
In the case of `c1ccc2cc(OCCN3CCCCC3)ccc2c1` [β 2 CH2], the IC50 [1, 4] is reported as > 250 µM.
`c1ccc2c(OCCCCn3ccnc3)cccc2c1` [imidazole] gave an IC50 [1, 8] of 68.3 ± 6.7 µM and a pKa [2] of 7.33.
In the case of `c1ccc2cc(SCCCCN3CCCCC3)ccc2c1` [β 4 piperdine], the IC50 [1, 7] is reported as 12.3 ± 2.6 µM.
Compound `C(=Cc1ccc2ccccc2c1)CCCCN1CCCCC1` [β CHCH 4 6, N-6-(naphth-2-yl)hex-5-enylpiperidine oxalate] has an IC50 [1, 5] of 2.2 ± 0.3 µM.
Work on `c1cc(OCCCCN2CCCCC2)c2occc2c1` [drawing 9 4 piperdine] yielded an IC50 [1, 6] of 70.1 ± 8.6 µM.
In the case of `c1cc(OCCCCCCN2CCCC2)c2occc2c1` [drawing 9 6 pyrrolidine], the IC50 [1, 6] is reported as 204 ± 13.3 µM.
Compound `c1ccc2c(OCCSCCN3CCCCC3)cccc2c1` has an IC50 [1, 9] of 41.7 ± 6.2 µM.
Compound `c1ccc2c(OCCCCN3CCCCC3)cccc2c1` [α 4 CH2, -4-(naphth-1-yloxy)butylpiperidine oxalate] has an IC50 [1, 4] of 7.4 ± 0.5 µM and a pKa [2] of 10.1.
`c1ccc2cc(SCCCCN3CCCC3)ccc2c1` [β 4 pyrrolidine] showed an IC50 [1, 7] of 18 ± 1.3 µM.
Compound `c1ccc2c(OCCCCN3CCOCC3)cccc2c1` [α 4 0] has an IC50 [1, 4] of 53.2 ± 10.5 µM and a pKa [2] of 7.41.
With `c1ccc2c(OCCN3CCOCC3)cccc2c1` [α 2 0] the IC50 [1, 4] was > 250 µM.
For `c1ccc2c(CCNCCCCCN3CCCCC3)cccc2c1`, the IC50 [1, 9] was 11.5 ± 1.6 µM.
With `c1cc(OCCCCCCN2CCCC2)c2ccsc2c1` [drawing 8 6 pyrrolidine, N-6-(benzo[b]thien-4-yloxy)hexylpyrrolidine] the IC50 [1, 6] was 0.22 ± 0.04 µM.
With `c1ccc2c(OCCCCN3CCCC3)cccc2c1` [pyrrolidine, N-4-(naphth-1-yloxy)butylpyrrolidine] the IC50 [1, 8] was 4 ± 0.2 µM and the pKa [2] was 10.3.
Compound `Brc1ccc2cc(OCCCCN3CCCCC3)ccc2c1` has an IC50 ([1]; Table 6, halogen substitution on the naphthalene ring, mean ± S.E., read-out: IC50 in μM (x ± SE)) of 9.3 ± 2 µM.
Work on `c1ccc2c(SCCCCN3CCCCC3)cccc2c1` [α 4 piperdine] yielded an IC50 [1, 7] of 23.6 ± 1.6 µM.
`c1ccc2c(OCCCN3CCCCC3)cccc2c1` [α 3 CH2] showed an IC50 [1, 4] of 106 ± 18 µM.
For `c1ccc2cc(OCCCN3CCCCC3)ccc2c1` [β 3 CH2], the IC50 [1, 4] was 29.2 ± 1.4 µM.
For `c1cc(OCCCCN2CCCCC2)c2ccsc2c1` [drawing 8 4 piperdine, N-[4-(benzo[b]thien-4-yloxy)butyl]piperidine oxalate], the IC50 [1, 6] was 1.8 ± 0.6 µM.
Compound `c1ccc2cc(OCCCCCN3CCOCC3)ccc2c1` [β 5 0] has an IC50 [1, 4] of 72.7 ± 9.4 µM.
In the case of `c1ccc2cc(OCCCCN3CCOCC3)ccc2c1` [β 4 0], the IC50 [1, 4] is reported as 85.6 ± 7 µM.
Compound `c1cc(OCCCCCCN2CCCCC2)c2ccsc2c1` [drawing 8 6 piperdine, N-6-(benzo[b]thien-4-yloxy)hexylpiperidine] has an IC50 [1, 6] of 0.38 ± 0.1 µM.
In the case of `Clc1ccc(OCCCCN2CCCCC2)cc1Cl`, the IC50 [1, 6] is reported as 55.3 ± 10 µM.
For `O=C(O)C(=O)O` [oxalic acid], the “effect on calmodulin-activated PDE” value ([1]; various concentrations) was “none was found” and the “effect on PDE” value [3] was “none was found”.
`c1ccc2cc(SCCCCCCN3CCCCC3)ccc2c1` [β 6 piperdine] gave an IC50 [1, 7] of 12.5 ± 1.5 µM.
Work on `NCCCCOc1cccc2ccccc12` [NH2] yielded an IC50 [1, 8] of 3.85 ± 0.2 µM and a pKa [2] of 10.6.
In the case of `c1ccc2c(OCCN3CCCCC3)cccc2c1` [α 2 CH2], the IC50 [1, 4] is reported as 152 ± 18.8 µM.
For `c1ccc2cc(OCCCN3CCOCC3)ccc2c1` [β 3 0], the IC50 [1, 4] was > 250 µM.
